According to patent publication US8608842B2, “Infrared absorbing composition, infrared absorbing ink, recorded article, image recording method, and image detecting method” (FUJIFILM Corporation, priority 2010, dated 2013):
Where two headings read alike, the source gives them in different places.

Experiments:
Type in all cases: physicochemical
[1] = Solubility of IR coloring material in toluene at 25° C.
Protocol: Specifics are as follows.
First, a tetrahydrofuran (THF) solution prepared by adding the IR coloring material to TI-IF is measured by a spectrophotometer and a calibration curve is constructed. Next, a liquid is prepared by adding the IR coloring material to toluene to the level that there is a part of the coloring material left undissolved. The resulting liquid is subjected to ultrasonication for 10 minutes while being maintained at 25° C., and allowed to stand overnight at 25° C. The THF solution obtained after the standing is filtered using a 0.2 μm filter. The filtrate is diluted so that it falls within the linear range of the calibration curve, the absorbance is measured, and quantification is made using the calibration curve.
The solubility shown in Table 1 was measured according to the method described below. Specifics are as follows.
First, the THF solution prepared by adding the IR coloring material to tetrahydrofuran (THF) was measured by a spectrophotometer, and the calibration curve was established. Next, a liquid was prepared by adding the IR coloring material to toluene to the level that there is a part of coloring material left undissolved. The resulting liquid was subjected to ultrasonication for 10 minutes while being kept at 25° C., and allowed to stand overnight at 25° C. The THF solution obtained after the standing was filtered using a 0.2 μm filter. The filtrate was diluted so that it falls within the linear range of the calibration curve, and the absorbance was measured. Based on the measured value, the solubility was quantified using the calibration curve.

[2] = Ultraviolet curable ink of Example 4: reflected light of mark for copy protection, before and after xenon irradiation; conditions: xenon light of 70,000 lux, 72 hours; variation compared to the value before irradiation
Protocol: By mixing the components of the composition shown below, an ultraviolet curable ink having an infrared absorbing property was prepared.
By using the ultraviolet curable ink thus obtained, a mark for copy protection was printed on the same base paper as that used in Example 1 by Gravure printing. On top of the printed mark for copy protection, each of the three kinds of a process ink (FDOL Yellow, FDOL Magenta, and FDOL Cyan, trade names, manufactured by TOYO INK MFG. CO., LTD.) was applied as a layer by Gravure printing, or a mixture ink in which the three kinds of a process ink are mixed was applied as a layer by Gravure printing to hide the mark for copy protection, thus obtaining a printed article.
The mark for copy protection that is hidden by the process ink was irradiated with infrared light using a linear sensor (trade name: TCD1500C, manufactured by Toshiba) in which the infrared cut-off filter of linear sensor was replaced with an infrared transmitting filter (trade name: IR83, manufactured by Hoya) as a detection device, and the reflected light was detected simultaneously.
The reflection light intensity in the area of the mark for copy protection at the time of detecting the mark was divided by the reflection light intensity of the area outside the mark for copy protection. The resulting value of the comparative infrared absorbing agent A was set to 1, and a ratio of the resulting value with respect to the resulting value of the comparative infrared absorbing agent A was calculated for each compound.
In addition, the obtained printed article was irradiated continuously with xenon light of 70,000 lux for 72 hours by using a Xenon lamp. After the irradiation, similar to above, the reflection light intensity of the area of the mark for copy protection was divided by the reflection light intensity of the area outside the mark for copy protection, and the variation ratio [%] compared to the value before the irradiation was calculated to use it as an index for evaluation of light resistance.

[3] = Bar code pattern reading (PCS) of printed article before and after xenon light irradiation (light resistance); conditions: xenon light of 70,000 lux, 200 hours
Protocol: By mixing the components of the composition shown below, the infrared absorbing printing ink (1) was prepared.
By using each of the infrared absorbing printing ink obtained above, a bar code pattern was formed on a regular paper (trade name: MP-120, manufactured by PLUS Corporation), i.e., a base paper, by Gravure printing.
Subsequently, on the formed bar code pattern, another bar code pattern was additionally formed by using the infrared absorbing ink (2) having the composition shown below.
Next, on top of the bar code patterns formed by disposing two layers, three kinds of process inks having infrared transmittance (FDOL Yellow, FDOL Magenta, and FDOL Cyan, manufactured by TOYO INK MFG. CO., LTD. (trade names, manufactured by TOYO INK MFG. CO., LTD.) were further applied by Gravure printing to form a colored layer made of three visible colors (cyan, magenta, and yellow). As a result, a printed article having a bar code pattern disposed inside the matter was produced.
Two kinds of semiconductor laser beam having wavelengths of 830 nm and 905 nm respectively were irradiated onto the thus obtained printed article, and the detection was made by using a filter which cuts off the emission light having wavelength of 950 nm or less. As a result, it was possible to detect the pattern formed by the infrared absorbing ink.
Subsequently, xenon light of 70,000 lux was irradiated continuously for 200 hours onto the printed article by using a xenon lamp. After that, the reading state of the bar code pattern after the irradiation was evaluated. For the evaluation, PCS (print•contrast•signal) of 0.6 or more was evaluated as “good,” and PCS (print•contrast•signal) of less than 0.6 was evaluated as “bad.” The evaluation results are shown in Table 2 below.
The printed article was prepared in the same manner as Example 1 except that the solvent (a mixture solvent of toluene and methyl isobutyl ketone) in the composition of the infrared absorbing ink (1) and (2) is replaced with n-octane (SP value: 7.6), butyl acetate (SP value: 8.5), or isopropyl alcohol (IPA; SP values: 11.5), and evaluated.
The comparative printed article was prepared in the same manner as Example 1 except that the solvent (a mixture solvent of toluene and methyl isobutyl ketone) in the composition of the infrared absorbing ink (1) and (2) is replaced with n-pentane (SP value: 7.0; Example 2) or ethanol (SP value: 12.7; Example 3), and evaluated.

[4] = Example 2, ink solvent n-pentane (SP value: 7.0)
[5] = Example 3, ink solvent ethanol (SP value: 12.7)
[6] = ink solvent IPA (SP value: 11.5)
[7] = ink solvent butyl acetate (SP value: 8.5)
[8] = ink solvent n-octane (SP value: 7.6)
[9] = ink solvent toluene/methyl isobutyl ketone = 70/30

SMILES | Solubility [mg/ml] Solvent: toluene ([1]; toluene, 25° C.) [mg/mL] | Variation amount after irradiation [%] [2] [%] | Reading after irradiation [3, 4] | Reading after irradiation [3, 5] | Reading after irradiation [3, 6] | Reading after irradiation [3, 7] | Reading after irradiation [3, 8] | Reading after irradiation [3, 9] | Solubility [mg/ml] Solvent: toluene [1] [mg/mL]
CCOc1c2c(c(OCC)c3ccccc13)-c1nc-2nc2[n-]c(nc3nc(nc4[n-]c(n1)c1c(OCC)c5ccccc5c(OCC)c41)-c1c-3c(OCC)c3ccccc3c1OCC)c1c(OCC)c3ccccc3c(OCC)c21.[Cu+2] [Compound 23] | 1.75 | 4 | Bad (PCS (print•contrast•signal) of less than 0.6 was evaluated as “bad.”) | Bad (PCS (print•contrast•signal) of less than 0.6 was evaluated as “bad.”) | Good (PCS (print•contrast•signal) of 0.6 or more was evaluated as “good,”) | Good (PCS (print•contrast•signal) of 0.6 or more was evaluated as “good,”) | Good (PCS (print•contrast•signal) of 0.6 or more was evaluated as “good,”) | Good (PCS (print•contrast•signal) of 0.6 or more was evaluated as “good,”) | 
CCCCOc1c2c(c(OCCCC)c3ccccc13)C1=Nc3c4c(OCCCC)c5ccccc5c(OCCCC)c4c4[n]3[Cu][n]3c(c5c(OCCCC)c6ccccc6c(OCCCC)c5c3=NC3=NC(=N4)c4c3c(OCCCC)c3ccccc3c4OCCCC)=NC2=N1 [Compound 24] | 16 | 3 | Bad (PCS (print•contrast•signal) of less than 0.6 was evaluated as “bad.”) | Bad (PCS (print•contrast•signal) of less than 0.6 was evaluated as “bad.”) | Good (PCS (print•contrast•signal) of 0.6 or more was evaluated as “good,”) | Good (PCS (print•contrast•signal) of 0.6 or more was evaluated as “good,”) | Good (PCS (print•contrast•signal) of 0.6 or more was evaluated as “good,”) | Good (PCS (print•contrast•signal) of 0.6 or more was evaluated as “good,”) | 
CCCCCCCCOc1c2c(c(OCCCCCCCC)c3ccccc13)C1=Nc3c4c(OCCCCCCCC)c5ccccc5c(OCCCCCCCC)c4c4[n]3[Cu][n]3c(c5c(OCCCCCCCC)c6ccccc6c(OCCCCCCCC)c5c3=NC3=NC(=N4)c4c3c(OCCCCCCCC)c3ccccc3c4OCCCCCCCC)=NC2=N1 [Compound 25] | 27 | 2 | Bad (PCS (print•contrast•signal) of less than 0.6 was evaluated as “bad.”) | Bad (PCS (print•contrast•signal) of less than 0.6 was evaluated as “bad.”) | Good (PCS (print•contrast•signal) of 0.6 or more was evaluated as “good,”) | Good (PCS (print•contrast•signal) of 0.6 or more was evaluated as “good,”) | Good (PCS (print•contrast•signal) of 0.6 or more was evaluated as “good,”) | Good (PCS (print•contrast•signal) of 0.6 or more was evaluated as “good,”) | 
CCCCCCCCOc1c2c(c(OCCCCCCCC)c3ccccc13)C1=Nc3c4c(OCCCCCCCC)c5ccccc5c(OCCCCCCCC)c4c4[n]3[Zn][n]3c(c5c(OCCCCCCCC)c6ccccc6c(OCCCCCCCC)c5c3=NC3=NC(=N4)c4c3c(OCCCCCCCC)c3ccccc3c4OCCCCCCCC)=NC2=N1 [Compound 27] |  | 4 | Bad (PCS (print•contrast•signal) of less than 0.6 was evaluated as “bad.”) | Bad (PCS (print•contrast•signal) of less than 0.6 was evaluated as “bad.”) | Good (PCS (print•contrast•signal) of 0.6 or more was evaluated as “good,”) | Good (PCS (print•contrast•signal) of 0.6 or more was evaluated as “good,”) | Good (PCS (print•contrast•signal) of 0.6 or more was evaluated as “good,”) | Good (PCS (print•contrast•signal) of 0.6 or more was evaluated as “good,”) | 25
Nc1ccccc1Sc1c2c(c(Sc3ccccc3N)c3c1C1=Nc4c5c(Sc6ccccc6N)c6c(c(Sc7ccccc7N)c5c5[n]4[Cu][n]4c(c7c(Sc8ccccc8N)c8c(c(Sc9ccccc9N)c7c4=NC4=NC(=N5)c5c(Sc7ccccc7N)c7c(c(Sc9ccccc9N)c54)NC4C=CC=CC4S7)SC4C=CC=CC4N8)=NC3=N1)NC1C=CC=CC1S6)SC1C=CC=CC1N2 (stereo not drawn) [Compound 69] | 12 | 4 | Bad (PCS (print•contrast•signal) of less than 0.6 was evaluated as “bad.”) | Bad (PCS (print•contrast•signal) of less than 0.6 was evaluated as “bad.”) | Good (PCS (print•contrast•signal) of 0.6 or more was evaluated as “good,”) | Good (PCS (print•contrast•signal) of 0.6 or more was evaluated as “good,”) | Good (PCS (print•contrast•signal) of 0.6 or more was evaluated as “good,”) | Good (PCS (print•contrast•signal) of 0.6 or more was evaluated as “good,”) | 
Nc1ccccc1Sc1c2c(c(Sc3ccccc3N)c3c1C1=Nc4c5c(Sc6ccccc6N)c6c(c(Sc7ccccc7N)c5c5[n]4[V](=[O])[n]4c(c7c(Sc8ccccc8N)c8c(c(Sc9ccccc9N)c7c4=NC4=NC(=N5)c5c(Sc7ccccc7N)c7c(c(Sc9ccccc9N)c54)NC4C=CC=CC4S7)SC4C=CC=CC4N8)=NC3=N1)NC1C=CC=CC1S6)SC1C=CC=CC1N2 (stereo not drawn) [Compound 71] | 16 | 3 | Bad (PCS (print•contrast•signal) of less than 0.6 was evaluated as “bad.”) | Bad (PCS (print•contrast•signal) of less than 0.6 was evaluated as “bad.”) | Good (PCS (print•contrast•signal) of 0.6 or more was evaluated as “good,”) | Good (PCS (print•contrast•signal) of 0.6 or more was evaluated as “good,”) | Good (PCS (print•contrast•signal) of 0.6 or more was evaluated as “good,”) | Good (PCS (print•contrast•signal) of 0.6 or more was evaluated as “good,”) | 
CCCCCCCCN1/C(=C/C=C/C=C/C=C/C2=[N+](CCCCCCCC)c3ccc4ccccc4c3C2(C)C)C(C)(C)c2c1ccc1ccccc21.Cc1ccc(S(=O)(=O)[O-])cc1 [reference compound] | 43 | 21 |  |  |  |  |  | Bad (PCS (print•contrast•signal) of less than 0.6 was evaluated as “bad.”) | 
